{"source": "patent US20130053323A1", "about": "“METHODS AND USE RELATED TO HUMANIN AND HUMANIN-LIKE PEPTIDES” (priority 2009, published 2013)", "key": {"[1]": {"test_system": "fetal rat metatarsal bones", "assay": "Longitudinal growth of cultured fetal rat metatarsal bones", "type": "cell-based", "experimental": "The three middle metatarsal bone rudiments were dissected out from the paws of 20-day-old embryos (E20) (De Luca, Barnes et al. 2001). After dissection, bones were transferred to 24-well plates, one bone per well and cultured in 0.5 ml phenol-red MEM medium supplemented with 0.2% endotoxin-free fraction BSA, […] β-glycerophosphate, 0.05 mg/ml ascorbic acid and 100 μg/ml penicillin/streptomycin at 37° C. under 5% CO2 in humidified atmosphere. Medium was changed every 2-3 days. Images were captured at days 0, 2, 5, 7, 9 and 12 of culture, using a Hamamatsu C4742-95 digital camera mounted on a Nikon SMZ-U microscope. The Image-Pro plus™ (Media Cybernetics, USA) software was used to measure longitudinal growth. Metatarsal bone growth is expressed as a percentage of the length at the day of dissection (regarded as day 0). Treatment with CT (bortezomib), dexamethasone and/or HNG (S14G) was started 2-4 hours after dissection. All isolated bones were pooled and then randomly divided into the different treatment groups (4 to 6 bones per group). Each experiment was repeated at least 3 times.\nThe data shown in FIG. 2A indicates novel growth promoting/protective effects of humanin analog HNG (S14G) on longitudinal bone growth in cultured fetal rat metatarsal bones. […] Briefly, fetal rat metatarsal bones were pre-treated with different concentrations (mentioned in the figure) of HNG (S14G), 30 min prior to addition of Dexa. […] (n=4-6 bones/group)\nCT (bortezomib) is a cytotoxic drug known to cause critical alterations in cells/tissues and disturb the cellular homeostasis. To test the effect of CT (bortezomib) on chondocytes and longitudinal bone growth, the established in vitro model of fetal rat metatarsal bones was used. These bones were collected as described in material and methods, cultured and treated with different concentrations of CT (bortezomib) under sterile conditions for up to 12 days. […] Apoptosis was analyzed in whole growth plate sections of 12-day cultured rat metatarsal bones (perichondrium excluded) by applying the TUNEL technique to detect DNA fragmentation.\nIn an attempt to block and prevent the negative effects on growth after CT (bortezomib)-treatment, recently discovered humanin analog HNG (S14G) was tested in vitro in fetal rat metatarsal bones."}, "FVB mice": {"test_system": "FVB mice", "assay": "Dexa-induced growth retardation in FVB mice (tibia length, nose to anus length)", "type": "in vivo", "settings": "Dexa 20 μg/mice/day s.c.", "experimental": "Four weeks old female mice FVB strain were obtained from Charles-River, Germany. The mice were kept in animal facility under a 12-h light, 12-h dark schedule with water ad libitum. After an adaptation period, mice were injected with Dexa dissolved in saline (20 μg/mice) subcutaneously in the neck every day for 1 week (short-term). Whereas, HNG (S14G) dissolved in saline (1 μg/mice) was injected intraperitoneally, 45 minutes prior to Dexa injection. The vehicle group received saline only. After one week of treatment/injections, animals were sacrificed and the back legs (femur and tibia) were collected. The skin and muscle from the tibia was removed and final length of tibia was measured by using electronic digital caliper as reported previously (Zaman, Menendez-Benito et al. 2007).\nIn another study, four weeks old female mice FVB strain (Charles-river, Germany) were injected with Dexa dissolved in saline (20 μg/mice) subcutaneously in the neck every day for four week (long-term). Whereas, HNG (S14G) dissolved in saline (1 μg/mice) was injected intraperitoneally, 45 minutes prior to Dexa injection. The vehicle group received saline only. The total body length (nose to anus) was measured (centimeters, cm) manually (blinded, the cadges were coded on the day of measurment), every week. After 4 weeks of treatment, animals were sacrificed by inhalation of CO2, tissue samples (both left and right leg) were collected for subsequent analysis.\nHNG injections were given […] prior to Dexa injections. […] After this, we next asked whether HNG (S14G) has any protective effects on bone growth after long-term treatment with Dexa (FIG. 3A). To investigate this, we treated mice for 4 weeks (group 2) with Dexa (20 μg/mice/day) and HNG (1 μg/mice/day). […] In FIG. 3B, total growth of the animals, nose to anus length (cm, manually) was analyzed in vehicle, Dexa, HNG (S14G) and Dexa/HNG (S14G) treated animals after four weeks of injections. **p<0.01 by 1-way ANOVA analyses, n=9-10/animals/group)."}, "growth plate cartilage": {"test_system": "growth plate cartilage", "assay": "Growth plate histology, resting and proliferating chondrocyte zone (R+P)", "type": "in vivo, mice", "settings": "Dexa alone, four weeks", "experimental": "Four weeks old mice (female, FVB) were injected with Dexa dissolved in saline ([…]) subcutaneously in the neck every day for four week. Whereas, HNG (S14G) dissolved in saline (1 μg/mice) was injected intra-peritoneally, 45 minutes prior to the Dexa injection for four weeks, for details see materials and methods. The femur and tibia bones were dissected out and fixed in 4% formalin for 24 hrs, followed by decalcification in 10% EDTA and embedded in paraffin blocks. Five-micrometer-thick sections were prepared from these paraffin blocks. The sections were prepared from the tibial growth plate and stained with Van Gieson. Digital images of stained sections were collected using a Nikon Eclipse E800 microscope (Nikon Corp., Tokyo, Japan) equipped with an Olympus DP70 digital camera (Olympus Sverige AB, Solna, Sweden).\nSince a positive effect of HNG (S14G) on bone growth was identified, different zones of chondrocytes were analyzed (resting, proliferative and hypertrophic) in growth plate cartilage, to identify visible changes in these zones. […] These micropgraphas also explain the longitudinal bone growth promoting effects by HNG (S14G) alone or in combination with Dexa."}, "growth plate": {"test_system": "growth plate", "text": "The proteasome inhibitors (PIs), including bortezomib (Velcade™, PS-341), belong to another novel and promising group of CT that has past phase I clinical trials (Blaney, Bernstein et al. 2004) and are now under phase II clinical trials in pediatric cancers. However, secondary effects on normal bystander tissues of primary life saving modalities are so far unknown."}, "male Wistar rats": {"test_system": "male Wistar rats", "settings": "cited from earlier work"}}, "data": [{"compound": "C[C@@H]1C[C@H]2[C@@H]3CCC4=CC(=O)C=C[C@]4(C)[C@@]3(F)[C@@H](O)C[C@]2(C)[C@@]1(O)C(=O)CO", "note": "[Dexa, Dexamethasone, reference compound]", "values": [{"measurement": "longitudinal bone growth", "setting": "[1]; Dexa 1 μM alone", "result": "induced growth retardation"}, {"measurement": "growth (tibia length)", "setting": "FVB mice; 1 week", "result": "significantly induced growth retardation"}, {"measurement": "growth (nose to anus length)", "setting": "FVB mice; 4 weeks, vs vehicle", "result": "significantly growth retarded"}, {"measurement": "size of resting and proliferating chondrocyte zone (R+P)", "setting": "growth plate cartilage", "result": "appears smaller"}]}, {"compound": "CC(C)C[C@H](NC(=O)[C@H](CC(C)C)NC(=O)[C@H](CC(C)C)NC(=O)OCc1ccccc1)B(O)O", "note": "[MG262]", "values": [{"measurement": "effect on growth plate and growth", "setting": "growth plate", "result": "permanent growth retardation and chondrocyte cell death"}]}, {"compound": "COc1cccc2c1C(=O)c1c(O)c3c(c(O)c1C2=O)C[C@@](O)(C(=O)CO)C[C@@H]3O[C@H]1C[C@H](N)[C@H](O)[C@H](C)O1", "note": "[doxorubicin]", "values": [{"measurement": "reduction in tibia length", "setting": "male Wistar rats", "result": 18, "unit": "%"}]}, {"compound": "CN(Cc1cnc2nc(N)nc(N)c2n1)c1ccc(C(=O)N[C@@H](CCC(=O)O)C(=O)O)cc1", "note": "[methotrexate]", "values": [{"measurement": "reduction in tibia length", "setting": "male Wistar rats", "result": 5, "unit": "%"}]}, {"compound": "Colivelin", "values": [{"measurement": "protection against Dexa-induced bone growth retardation", "setting": "[1]; colivelin 100 μM combined with Dexa 1 μM", "result": "some protective effect against Dexa-induced bone growth retardation"}, {"measurement": "longitudinal growth", "setting": "[1]; colivelin alone, cultured for 12 days", "result": "some stimulatory effect on longitudinal growth"}]}]}
